# Laboratory results reported in patent US20040229934A1, “Method of reducing type 2 diabetes in high risk patients” (priority 2002, published 2004).
# Legend:
# [1] = test system: patients older than 55 years without known diabetes but with vascular disease; assay: Heart Outcomes Prevention Evaluation (HOPE) trial: new diagnosis of diabetes; assay type: in vivo; conditions: for New Diabetes With Glycated Hemoglobin ≧110% ULN, RR (95% CI) / New Diabetes With Oral Agents or Insulin and Glycated Hemoglobin ≧110% ULN, RR (95% CI) / New Diabetes With Oral Agents or Insulin, RR (95% CI) / New Diabetes, RR (95% CI): vs placebo
# Procedure: The design of the Heart Outcomes Prevention Evaluation (HOPE) trial has been described in detail in previous publications. Briefly, individuals who were 55 years or older with no evidence of left ventricular dysfunction or heart failure and who had evidence of vascular disease or who had diabetes and 1 other risk factor were eligible as long as they had no indication or contraindication to receiving an ACE-inhibitor. The study was conducted in […] in 19 countries from 1994 to 1999. All patients provided written informed consent. Of 10576 eligible patients who participated in a run-in period during which they received 2.5 mg ramipril once daily for 1 week followed by matching placebo for 10 to 14 days, 1035 (9.8%) were excluded from randomization (3.2% for side effects, 3.7% for lack of consent). […] This Example focuses primarily on the latter group of patients. Of these patients, 5720 were randomized to receive up to 10 mg of ramipril once per day or equivalent placebo. One hundred sixty-seven patients who were randomized to receive a low dose (2.5 mg/day) of ramipril as part of the Study to Evaluate Carotid Ultrasound changes with Ramipril and Vitamin E (SECURE). All randomized patients were also randomized to receive 400 IU of Vitamin E or placebo. Follow-up visits occurred at 1 month and 6 months after randomization and then every 6 months (mean follow-up of 4.5 years). At each visit, we documented whether the diagnosis of diabetes had been made since the last visit. The primary outcome of this analysis is a new diagnosis of diabetes recorded on the basis of self-report. […] Hemoglobin A1c (HbA1c) levels and medications used among those diagnosed as having diabetes were also recorded. The HbA1c, levels were determined locally. Values higher than 110% of the upper limit of normal for each laboratory were considered to be biochemical confirmation of diabetes. Survival curves utilizing the Kaplan Meier and log-rank procedures were used to describe and compare the results in the 2 treatment groups. Because of the factorial design, all analyses were stratified for randomization to vitamin E or placebo. Subgroup analyses were conducted using tests of interaction in the Cox regression model. Design, Setting and Participants. The randomized, controlled Heart Outcomes Prevention Evaluation trial of 5720 patients older than 55 years without known diabetes but with vascular disease who were followed up for a mean of 4.5 years. The study included 267 hospitals in 19 countries and was conducted between 1994 and 1999. Intervention. Patients were randomly assigned to receive ramipril, up to 10 mg/d (n=2837), or I Main Outcome Measure. Diagnosis of diabetes determined from self-report at follow-up visits every 6 months, compared between the 2 groups.
# patients with diabetes = assay: HOPE trial: HbA1c levels among the patients with diabetes; assay type: in vivo; conditions: serial annual recordings, first 2 years
# Procedure: The Study to Evaluate Carotid Ultrasound changes in patients treated with Ramipril and vitamin E (SECURE) in which fasting glucose increased more with placebo (15.8 mg/dL [0.41 mmols]) than with ramipril (9.6 mg/dL (0.25 mmols]; P=0.03). Among the patients with diabetes in the HOPE study, there was a significant reduction in HbA1c levels during serial annual recordings occurred during the first 2 years (absolute difference, 0.2%). In the UK Prospective Diabetes Study (UKPDS) and in the Captopril Prevention Project, patients randomized to receive ACE inhibitors had lower levels of HbA1c or less development of diabetes compared with those taking β-blockers or diuretics. However, it is not clear whether the differences in development of diabetes observed in these studies are due to a protective effect of ACE inhibitors or an adverse effect of β-blockers or diuretics.
# [2] = controlling for primary events and development of MA or ON
# [3] = ramipril up to 10 mg/d, n=2837, mean follow-up 4.5 years
molecule,measurement,setting,value
Vitamin E,effect on diabetes compared with placebo,"[1]; 400 IU of Vitamin E, factorial design",did not differ
CCOC(=O)[C@H](CCc1ccccc1)N[C@@H](C)C(=O)N1[C@H](C(=O)O)C[C@@H]2CCC[C@@H]21 [ramipril],"reduction in HbA1c levels, absolute difference",patients with diabetes,0.2%
same,"RR, footnote | | (New Diabetes With Oral Agents or Insulin and Glycated Hemoglobin ≧110% ULN): new diabetes with patient taking glucose-lowering therapy",[1]; [2],"| |Controlling for primary events and development of MA or ON, new diabetes with patient taking glucose-lowering therapy had a 0.52 RR (95% CI, 35-0.78)."
same,"RR, footnote § (New Diabetes With Oral Agents or Insulin): new diabetes with patient taking glucose-lowering therapy",[1]; [2],"§Controlling for primary events and development of MA or ON, new diabetes with patient taking glucose-lowering therapy had a 0.58 RR (95% CI, 42-0.79)."
same,"RR, footnote † (New Diabetes): new diabetes with glycated hemoglobin 110%",[1]; [2],"†Controlling for primary events and development of MA or ON, new diabetes with glycated hemoglobin 110% had a 0.67 RR (95% CI, 0..52-0.86)."
same,"RR, footnote ‡ (New Diabetes With Glycated Hemoglobin ≧110% ULN): new diabetes with patient taking glucose-lowering therapy",[1]; [2],"‡Controlling for primary events and development of MA or ON, new diabetes with patient taking glucose-lowering therapy had a 0.58 RR (95% CI, 44-0.88)."
same,proportion diagnosed with diabetes receiving an oral glucose lowering agent or insulin,[1]; ramipril group,2.1%
same,proportion of patients diagnosed to have diabetes and a documented glycated hemoglobin of 110% or more above the upper limit of normal,[1]; ramipril group,1.8%
same,"proportion with all criteria (diabetes, glycated hemoglobin, glucose-lowering therapy)",[1]; ramipril group,1.3%
same,relative risk [RR] of new diagnosis of diabetes,[1]; ramipril group vs placebo group,0.66
same,individuals who reported a new diagnosis of diabetes (number),[1]; [3],102 and One hundred and two
same,individuals who reported a new diagnosis of diabetes (proportion),[1]; [3],3.6%
same,RR for diabetes in the subgroup who never took diuretics or β-blockers during the study,[1]; ramipril vs placebo,0.62
same,"RR, all criteria (both)",[1]; ramipril vs placebo,0.51
same,"RR, diabetes with oral glucose lowering agent or insulin (initiation of glucose-lowering therapy)",[1]; ramipril vs placebo,0.56
same,"RR, diagnosis of diabetes and glycated hemoglobin 110% or more",[1]; ramipril vs placebo,0.60
same,"New Diabetes With Glycated Hemoglobin ≧110% ULN, number of patients",[1]; stratum: no new MA or ON,42
same,"New Diabetes With Glycated Hemoglobin ≧110% ULN, proportion (in parentheses)",[1]; stratum: no new MA or ON,1.7
same,"New Diabetes With Oral Agents or Insulin and Glycated Hemoglobin ≧110% ULN, number of patients",[1]; stratum: no new MA or ON,30
same,"New Diabetes With Oral Agents or Insulin and Glycated Hemoglobin ≧110% ULN, proportion (in parentheses)",[1]; stratum: no new MA or ON,1.2
same,"New Diabetes With Oral Agents or Insulin, number of patients",[1]; stratum: no new MA or ON,45
same,"New Diabetes With Oral Agents or Insulin, proportion (in parentheses)",[1]; stratum: no new MA or ON,1.8
same,"New Diabetes, number of patients",[1]; stratum: no new MA or ON,82
same,"New Diabetes, proportion (in parentheses)",[1]; stratum: no new MA or ON,9.3
same,"New Diabetes With Glycated Hemoglobin ≧110% ULN, RR (95% CI)",[1]; stratum: no new MA or ON,0.66 (0.48-0.98)
same,"New Diabetes With Oral Agents or Insulin and Glycated Hemoglobin ≧110% ULN, RR (95% CI)",[1]; stratum: no new MA or ON,0.80 (0.38-0.84)
same,"New Diabetes With Oral Agents or Insulin, RR (95% CI)",[1]; stratum: no new MA or ON,0.56 (0.39-0.81)
same,"New Diabetes, RR (95% CI)",[1]; stratum: no new MA or ON,0.87 (0.51-0.89)
same,"New Diabetes With Glycated Hemoglobin ≧110% ULN, number of patients",[1]; stratum: no primary event,45
same,"New Diabetes With Glycated Hemoglobin ≧110% ULN, proportion (in parentheses)",[1]; stratum: no primary event,1.8
same,"New Diabetes With Oral Agents or Insulin and Glycated Hemoglobin ≧110% ULN, number of patients",[1]; stratum: no primary event,32
same,"New Diabetes With Oral Agents or Insulin and Glycated Hemoglobin ≧110% ULN, proportion (in parentheses)",[1]; stratum: no primary event,1.9
same,"New Diabetes With Oral Agents or Insulin, number of patients",[1]; stratum: no primary event,54
same,"New Diabetes With Oral Agents or Insulin, proportion (in parentheses)",[1]; stratum: no primary event,2.2
same,"New Diabetes, number of patients",[1]; stratum: no primary event,93
same,"New Diabetes, proportion (in parentheses)",[1]; stratum: no primary event,3.8
same,"New Diabetes With Glycated Hemoglobin ≧110% ULN, RR (95% CI)",[1]; stratum: no primary event,0.81 (0.42-0.89)
same,"New Diabetes With Oral Agents or Insulin and Glycated Hemoglobin ≧110% ULN, RR (95% CI)",[1]; stratum: no primary event,0.61 (0.33-.78)
same,"New Diabetes With Oral Agents or Insulin, RR (95% CI)",[1]; stratum: no primary event,0.58 (0.42-0.82)
same,"New Diabetes, RR (95% CI)",[1]; stratum: no primary event,0.69 (0.53-0.91)
same,"New Diabetes With Glycated Hemoglobin ≧110% ULN, number of patients",[1]; stratum: with new MA or ON,10
same,"New Diabetes With Glycated Hemoglobin ≧110% ULN, proportion (in parentheses)",[1]; stratum: with new MA or ON,2.8
same,"New Diabetes With Oral Agents or Insulin and Glycated Hemoglobin ≧110% ULN, number of patients",[1]; stratum: with new MA or ON,6
same,"New Diabetes With Oral Agents or Insulin and Glycated Hemoglobin ≧110% ULN, proportion (in parentheses)",[1]; stratum: with new MA or ON,1.7
same,"New Diabetes With Oral Agents or Insulin, number of patients",[1]; stratum: with new MA or ON,14
same,"New Diabetes With Oral Agents or Insulin, proportion (in parentheses)",[1]; stratum: with new MA or ON,3.9
same,"New Diabetes, number of patients",[1]; stratum: with new MA or ON,20
same,"New Diabetes, proportion (in parentheses)",[1]; stratum: with new MA or ON,5.6
same,"New Diabetes With Glycated Hemoglobin ≧110% ULN, RR (95% CI)",[1]; stratum: with new MA or ON,0.47 (0.23-0.98)
same,"New Diabetes With Oral Agents or Insulin and Glycated Hemoglobin ≧110% ULN, RR (95% CI)",[1]; stratum: with new MA or ON,0.32 (0.13-0.79)
same,"New Diabetes With Oral Agents or Insulin, RR (95% CI)",[1]; stratum: with new MA or ON,0.61 (0.32-1.16)
same,"New Diabetes, RR (95% CI)",[1]; stratum: with new MA or ON,0.85 (0.38-1.12)
same,"New Diabetes With Glycated Hemoglobin ≧110% ULN, number of patients",[1]; stratum: with primary event,7
same,"New Diabetes With Glycated Hemoglobin ≧110% ULN, proportion (in parentheses)",[1]; stratum: with primary event,1.9
same,"New Diabetes With Oral Agents or Insulin and Glycated Hemoglobin ≧110% ULN, number of patients",[1]; stratum: with primary event,4
same,"New Diabetes With Oral Agents or Insulin and Glycated Hemoglobin ≧110% ULN, proportion (in parentheses)",[1]; stratum: with primary event,1.1
same,"New Diabetes With Oral Agents or Insulin, number of patients",[1]; stratum: with primary event,5
same,"New Diabetes With Oral Agents or Insulin, proportion (in parentheses)",[1]; stratum: with primary event,1.3
same,"New Diabetes, number of patients",[1]; stratum: with primary event,9
same,"New Diabetes, proportion (in parentheses)",[1]; stratum: with primary event,2.4
same,"New Diabetes With Glycated Hemoglobin ≧110% ULN, RR (95% CI)",[1]; stratum: with primary event,0.59 (0.24-1.43)
same,"New Diabetes With Oral Agents or Insulin and Glycated Hemoglobin ≧110% ULN, RR (95% CI)",[1]; stratum: with primary event,0.64 (0.17-1.72)
same,"New Diabetes With Oral Agents or Insulin, RR (95% CI)",[1]; stratum: with primary event,0.42 (0.15-1.14)
same,"New Diabetes, RR (95% CI)",[1]; stratum: with primary event,0.48 (0.21-0.98)
same,results among subgroups with different risk factors for developing diabetes (FIG. 2),"[1]; waist to hip ratio, BMI, hypertension history, β-blockers or diuretics at randomization",consistent
